tested on: HCV replicon cells; assay: Cell-based HCV replicon assay (replicon RNA level by real time PCR, Taqman); conditions: Hepatitis C virus, 72 h, HCV replicon cells, harvested day 3, replicon RNA by real time PCR; given as number; read-out: EC90 (μM) range
Experimental: Assays Cell-Based HCV Replicon Assay
To measure cell-based anti-HCV activity of the compounds of the present invention, replicon cells were seeded at 5000 cells/well in 96-well collagen I-coated Nunc plates in the presence of the compound of the invention. Various concentrations of a compound of the invention, typically in 10 serial 2-fold dilutions, were added to the assay mixture, the starting concentration of the compound ranging from 25 μM to 1 μM. The final concentration of DMSO was 0.5%, fetal bovine serum was 10%, in the assay media. Cells were harvested on day 3 by the addition of 1× cell lysis buffer (Ambion cat #8721). The replicon RNA level was measured using real time PCR (Taqman assay). The amplicon was located in 5B. The PCR primers were: 5B.2F, ATGGACAGGCGCCCTGA (SEQ. ID NO. 1); 5B.2R, […] (SEQ. ID NO. 2); the probe sequence was FAM-labeled CACGCCATGCGCTGCGG (SEQ. ID NO. 3). GAPDH RNA was used as endogenous control and was amplified in the same reaction as NS5B (multiplex PCR) using primers and VIC-labeled probe recommended by the manufacturer (PE Applied Biosystem). The real-time RT-PCR reactions were run on ABI PRISM 7900HT Sequence Detection System using the following program: 48′C for 30 min, 95° C. for 10 min, 40 cycles of 95° C. for 15 sec, 60° C. for 1 min. The ΔCT values (CT5B-CTGAPDH) were plotted against the concentration of test compound and fitted to the sigmoid dose-response model using GraphPad PRISM software. EC50 was defined as the concentration of inhibitor necessary to achieve ΔCT=1 over the projected baseline; EC90 the concentration necessary to achieve ΔCT=3.2 over the baseline. Alternatively, to quantitate the absolute amount of replicon RNA, a standard curve was established by including serially diluted T7 transcripts of replicon RNA in the Taqman assay. All Taqman reagents were from PE Applied Biosystems. Such an assay procedure was described in detail in e.g. Malcolm et al., Antimicrobial Agents and Chemotherapy 50: 1013-1020 (2006).
HCV Replicon assay data for compounds of the invention that were tested was obtained using the above method. Calculated EC90 values are reported for each compound in Table I as a falling within the following ranges: […]

Row | Compound | EC90
1 | CCC(CC)Oc1cc2cc(-c3c(C)nc(NCCOC)nc3N[C@@H]3C[C@H](CO)[C@@H](O)[C@H]3O)oc2c(C)n1 [Example 48] | > 25 µM
2 | CCCOc1cc2cc(-c3c(C)nc(NCC4CC4)nc3N[C@@H]3C[C@H](CO)[C@@H](O)[C@H]3O)oc2cn1 [Example 62] | 0.7 µM
3 | Cc1nc(NCC(F)(F)F)nc(N[C@@H]2C[C@H](COC(=O)N3CCOCC3)[C@@H](O)[C@H]2O)c1-c1nc2ccccc2s1 [Example 63] | 0.45 µM
4 | CCCOc1cc2cc(-c3c(C)nc(NCC(F)(F)F)nc3N[C@@H]3C[C@H](CO)[C@@H](O)[C@H]3O)oc2c(C)n1 [Example 34] | 0.1 µM

same assay, conditions: Hepatitis C virus, 72 h, HCV replicon cells, harvested day 3, replicon RNA by real time PCR; reported as range class; read-out: EC90 (μM) range

Row | Compound | EC90
5 | CN(C)c1ccc2sc(-c3c(Cl)nc(N)nc3N[C@@H]3C[C@H](CO)[C@@H](O)[C@H]3O)nc2c1 [Example 200] | < 0.5 µM
6 | Cc1nc(NCC(F)(F)F)nc(N[C@@H]2C[C@H](CO)[C@@H](O)[C@H]2O)c1-c1nc2ccccc2s1 [Example 125] | < 0.5 µM
7 | CCOc1ccc2nc(-c3c(Cl)nc(N(C)C)nc3N[C@@H]3C[C@H](CO)[C@@H](O)[C@H]3O)sc2c1 [Example 203] | > 5 µM
8 | CNC(=O)c1ccc2oc(-c3c(Cl)nc(N)nc3N[C@@H]3C[C@H](CO)[C@@H](O)[C@H]3O)cc2c1 [Example 172] | > 5 µM
9 | CNc1ccc2sc(-c3c(Cl)nc(N)nc3N[C@@H]3C[C@H](CO)[C@@H](O)[C@H]3O)nc2c1 [Example 194] | < 0.5 µM
10 | Nc1ncc(-c2cc3ccncc3o2)c(N[C@@H]2C[C@H](CO)[C@@H](O)[C@H]2O)n1 [Example 113] | 0.5 to 5 µM
11 | Cc1nc(NCC(F)F)nc(N[C@@H]2C[C@H](CO)[C@@H](O)[C@H]2O)c1-c1nc2ccccc2s1 [Example 215] | < 0.5 µM
12 | CCCOCCNc1nc(Cl)c(-c2nc3ccccc3s2)c(N[C@@H]2C[C@H](CO)[C@@H](O)[C@H]2O)n1 [Example 226] | < 0.5 µM

same assay, conditions: Hepatitis C virus, 72 h, HCV replicon cells, harvested on day 3, replicon RNA by real time PCR; calculated EC90 reported as range class; read-out: EC90 (μM) range

Row | Compound | EC90
13 | Cc1nc(NCCNC(=O)NC(C)(C)C)nc(N[C@@H]2C[C@H](CO)[C@@H](O)[C@H]2O)c1-c1nc2ccccc2s1 [Example 250] | 0.5 to 5 µM
14 | CCc1cc2cc(-c3c(C)nc(NCc4cc(OC)cc(OC)c4)nc3N[C@@H]3C[C@H](CO)[C@H]4OC(C)(C)O[C@H]43)oc2cn1 [Example 345] | < 0.5 µM
15 | Cc1nc(NCc2nccs2)nc(N[C@@H]2C[C@H](CO)[C@H]3OC(C)(C)O[C@H]32)c1-c1nc2ccccc2s1 [Example 472] | < 0.5 µM
16 | CCc1cc2cc(-c3c(C)nc(NCC4CC4)nc3N[C@@H]3C[C@H](CO)[C@@H](O)[C@H]3O)oc2cn1 [Example 509] | < 0.5 µM
17 | CCOC(=O)NCCNc1nc(C)c(-c2nc3ccccc3s2)c(N[C@@H]2C[C@H](CO)[C@H]3OC(C)(C)O[C@H]32)n1 [Example 255] | < 0.5 µM
18 | CCc1cc2cc(-c3c(C)nc(NCCC(F)(F)F)nc3N[C@@H]3C[C@H](CO)[C@@H](O)[C@H]3O)oc2cn1 [Example 521] | < 0.5 µM
19 | Cc1nc(NCc2ccccn2)nc(N[C@@H]2C[C@H](CO)[C@H]3OC(C)(C)O[C@H]32)c1-c1nc2ccccc2s1 [Example 462] | 0.5 to 5 µM
20 | Cc1cc2cc(-c3c(C)nc(NCC4CCCCC4)nc3N[C@@H]3C[C@H](CO)[C@@H](O)[C@H]3O)oc2c(C)n1 [Example 461] | < 0.5 µM
21 | CCOCCNc1nc(C)c(-c2nc(C)c(C)s2)c(N[C@@H]2C[C@H](CO)[C@H]3OC(C)(C)O[C@H]32)n1 [Example 133] | > 5 µM

same assay, conditions: Hepatitis C virus, 72 h, HCV replicon cells, replicon RNA level by real time PCR (Taqman), harvested on day 3; calculated EC90 reported as range class; read-out: EC90 (μM) range

Row | Compound | EC90
22 | Cc1nc(NCc2cccc(N(C)C)c2)nc(N[C@@H]2C[C@H](CO)[C@@H](O)[C@H]2O)c1-c1nc2ccccc2s1 [Example 1106] | < 0.5 µM
23 | COc1cc(OC)cc(C(C)Nc2nc(C)c(-c3nc4ccccc4s3)c(N[C@@H]3C[C@H](CO)[C@@H](O)[C@H]3O)n2)c1 (stereo partly shown) [Example 1209] | 0.5 to 5 µM
24 | Cc1nc(N[C@@H]2CCc3ccccc32)nc(N[C@@H]2C[C@H](CO)[C@@H](O)[C@H]2O)c1-c1nc2cnccc2s1 [Example 1312] | 0.5 to 5 µM
25 | Cc1nc(NCC(C)(F)F)nc(N[C@@H]2C[C@H](CO)[C@@H](O)[C@H]2O)c1-c1nc2ccccc2s1 [Example 1242] | 0.5 to 5 µM
26 | COc1cc2cc(-c3c(C)nc(NCC(C)(C)C)nc3N[C@@H]3C[C@H](CO)[C@@H](O)[C@H]3O)oc2c(C)n1 [Example 1201] | 0.5 to 5 µM
27 | CCOCCNc1nc(C)c(-c2nc3ccccc3n2C)c(N[C@@H]2C[C@H](CO)[C@@H](O)[C@H]2O)n1 [Example 531] | > 5 µM
28 | Cc1ccc2nc(-c3c(C)nc(NCC(F)(F)F)nc3N[C@@H]3C[C@H](CO)[C@@H](O)[C@H]3O)sc2c1 [Example 1063] | 0.5 to 5 µM
29 | CCOCCCCNc1nc(C)c(-c2nc3ccccc3s2)c(N[C@@H]2C[C@H](CO)[C@@H](O)[C@H]2O)n1 [Example 1052] | < 0.5 µM
30 | Cc1nc(NCC2CC2)nc(N[C@@H]2C[C@H](CO)[C@@H](O)[C@@H]2O)c1-c1nc2ccccc2s1 [Example 1252] | > 5 µM
31 | Cc1nc(N[C@H](C)c2ccccc2)nc(N[C@@H]2C[C@H](CO)[C@@H](O)[C@H]2O)c1-c1nc2cnccc2s1 [Example 543] | < 0.5 µM
32 | CNc1ccc2oc(-c3c(C)nc(NCC4CC4)nc3N[C@@H]3C[C@H](CO)[C@@H](O)[C@H]3O)nc2c1 [Example 1065] | 0.5 to 5 µM
33 | Cc1nc(NCC(C)(C)C)nc(N[C@@H]2C[C@H](CO)[C@@H](O)[C@H]2O)c1-c1cc2cc(C(C)(C)C)ncc2o1 [Example 1104] | > 5 µM
34 | Cc1nc(NCC(C)(C)C)nc(N[C@@H]2C[C@H](CO)[C@@H](O)[C@H]2O)c1-c1ccc2ccccc2n1 [Example 1322] | > 5 µM

same assay, conditions: Hepatitis C virus, 72 h, HCV replicon cells, replicon RNA level by real time PCR, harvested day 3; read-out: EC90 (μM) range

Row | Compound | EC90
35 | Cc1ccc([C@@H](C)Nc2nc(C)c(-c3nc4ccccc4o3)c(N[C@@H]3C[C@H](CO)[C@@H](O)[C@H]3O)n2)cc1 [Example 1360] | 0.5 to 5 µM
36 | Cc1nc(N[C@H](C)C2CC2)nc(N[C@@H]2C[C@H](C(C)O)[C@@H](O)[C@H]2O)c1-c1nc2cnccc2s1 (stereo partly shown) [Example 1642] | < 0.5 µM
37 | CCC(O)[C@H]1C[C@@H](Nc2nc(NCC(F)(F)F)nc(C)c2-c2nc3ccccc3s2)[C@H](O)[C@@H]1O (stereo partly shown) [Example 1637] | 0.5 to 5 µM
38 | CCc1nccc2sc(-c3c(C)nc(N[C@H](C)C4CC4)nc3N[C@@H]3C[C@H](CO)[C@@H](O)[C@H]3O)nc12 [Example 1505] | < 0.5 µM
39 | Cc1nc(NC2CCC2)nc(N[C@@H]2C[C@H](CO)[C@@H](O)[C@H]2O)c1-c1nc2c(C)nccc2s1 [Example 1544] | < 0.5 µM
40 | CCCc1nccc2sc(-c3c(C)nc(NC4CC4)nc3N[C@@H]3C[C@H](CO)[C@@H](O)[C@H]3O)nc12 [Example 1535] | < 0.5 µM
41 | CCc1nccc2sc(-c3c(C)nc(NCC(F)(F)F)nc3N[C@@H]3C[C@H](CO)[C@@H](O)[C@H]3O)nc12 [Example 1340] | < 0.5 µM
42 | Cc1nc(NCC2CC2)nc(N[C@@H]2CC[C@@H](O)[C@@]2(C)O)c1-c1nc2c(C)nccc2s1 [Example 1815] | < 0.5 µM
43 | Cc1nc(NCC2CC2)nc(N[C@@H]2C[C@H](CO)[C@@H](O)[C@H]2O)c1-c1nc2c(CC(C)C)nccc2s1 [Example 1370] | < 0.5 µM
44 | Cc1nc(NCC2CC2)nc(N[C@@H]2C[C@@H](C(C)O)[C@@H](O)[C@H]2O)c1-c1nc2cnccc2s1 (stereo partly shown) [Example 1650] | < 0.5 µM
45 | Cc1nc(NCC(F)(F)F)nc(N[C@@H]2C[C@H](CN(CC3CC3)S(C)(=O)=O)[C@@H](O)[C@H]2O)c1-c1nc2ccccc2s1 [Example 1395] | < 0.5 µM
46 | CC(=O)NC[C@H]1C[C@@H](Nc2nc(NCC(F)(F)F)nc(C)c2-c2nc3ccccc3s2)[C@H](O)[C@@H]1O [Example 1506] | 0.5 to 5 µM

From patent US8697694B2, “Substituted pyridine and pyrimidine derivatives and their use in treating viral infections” (priority 2008, dated 2014)
